Experimental data reported in PubChem BioAssay (NCI).
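GI50 is the concentration that inhibits growth by half. At the TGI there is no net growth.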

Tests used:
Assay in all cases: growth of human tumour cells (NCI), 384-well format
UACC-62 melanoma = test system: UACC-62 melanoma
UACC-257 melanoma = test system: UACC-257 melanoma
COLO 205 colon = test system: COLO 205 colon
MCF7 breast = test system: MCF7 breast
SK-OV-3 ovarian = test system: SK-OV-3 ovarian
SK-MEL-28 melanoma = test system: SK-MEL-28 melanoma
NCI-H460 NSCLC = test system: NCI-H460 NSCLC
A498 renal = test system: A498 renal
U251 glioblastoma = test system: U251 glioblastoma
SNB-19 CNS = test system: SNB-19 CNS
HCT-116 colon = test system: HCT-116 colon
IGROV1 ovarian = test system: IGROV1 ovarian
BT-549 breast = test system: BT-549 breast
HL-60(TB) leukemia = test system: HL-60(TB) leukemia
SNB-75 CNS = test system: SNB-75 CNS
M14 melanoma = test system: M14 melanoma
RXF 393 renal = test system: RXF 393 renal
OVCAR-3 ovarian = test system: OVCAR-3 ovarian
SF-268 CNS = test system: SF-268 CNS
NCI-H226 lung = test system: NCI-H226 lung
CAKI-1 renal = test system: CAKI-1 renal
ACHN renal = test system: ACHN renal
MOLT-4 leukemia = test system: MOLT-4 leukemia
SF-295 CNS = test system: SF-295 CNS
TK-10 renal = test system: TK-10 renal
LOX IMVI melanoma = test system: LOX IMVI melanoma
HCC-2998 colon = test system: HCC-2998 colon
NCI-H23 lung = test system: NCI-H23 lung
A549 NSCLC = test system: A549 NSCLC
NCI/ADR-RES ovarian = test system: NCI/ADR-RES ovarian
HCT-15 colon = test system: HCT-15 colon
NCI-H522 lung = test system: NCI-H522 lung
SR leukemia = test system: SR leukemia
SN12C renal = test system: SN12C renal
DU-145 prostate = test system: DU-145 prostate
OVCAR-8 ovarian = test system: OVCAR-8 ovarian
MDA-MB-468 breast = test system: MDA-MB-468 breast
HS 578T breast = test system: HS 578T breast
HOP-92 NSCLC = test system: HOP-92 NSCLC
KM12 colon = test system: KM12 colon
T-47D breast = test system: T-47D breast
MDA-MB-435 melanoma = test system: MDA-MB-435 melanoma
NCI-H322M lung = test system: NCI-H322M lung
MDA-MB-231 breast = test system: MDA-MB-231 breast
MALME-3M melanoma = test system: MALME-3M melanoma
OVCAR-5 ovarian = test system: OVCAR-5 ovarian
EKVX NSCLC = test system: EKVX NSCLC
HT29 colon = test system: HT29 colon
SK-MEL-5 melanoma = test system: SK-MEL-5 melanoma
PC-3 prostate = test system: PC-3 prostate
SF-539 CNS = test system: SF-539 CNS
OVCAR-4 ovarian = test system: OVCAR-4 ovarian
HOP-62 NSCLC = test system: HOP-62 NSCLC

O=C(NO)c1cnc(N2CCN(S(=O)(=O)c3ccc4ccccc4c3)CC2)nc1
GI50 (UACC-62 melanoma): 0.0417 µM | TGI (UACC-62 melanoma): 0.154 µM | GI50 (UACC-257 melanoma): 0.0238 µM | TGI (UACC-257 melanoma): 0.0853 µM | GI50 (COLO 205 colon): 0.129 µM | TGI (COLO 205 colon): 0.263 µM | GI50 (MCF7 breast): 0.0446 µM | TGI (MCF7 breast): 0.205 µM | GI50 (SK-OV-3 ovarian): 0.0854 µM | TGI (SK-OV-3 ovarian): 0.237 µM | GI50 (SK-MEL-28 melanoma): 0.0396 µM | TGI (SK-MEL-28 melanoma): 0.146 µM | GI50 (NCI-H460 NSCLC): 0.0308 µM | TGI (NCI-H460 NSCLC): 0.138 µM | GI50 (A498 renal): 0.0697 µM | TGI (A498 renal): 0.205 µM | GI50 (U251 glioblastoma): 0.0504 µM | TGI (U251 glioblastoma): 0.17 µM | GI50 (SNB-19 CNS): 0.154 µM | TGI (SNB-19 CNS): 0.299 µM | GI50 (HCT-116 colon): 0.032 µM | TGI (HCT-116 colon): 0.12 µM | GI50 (IGROV1 ovarian): 0.0658 µM | TGI (IGROV1 ovarian): 0.195 µM | GI50 (BT-549 breast): 0.128 µM | TGI (BT-549 breast): 0.319 µM | GI50 (HL-60(TB) leukemia): 0.015 µM | TGI (HL-60(TB) leukemia): 0.0287 µM | GI50 (SNB-75 CNS): 0.166 µM | TGI (SNB-75 CNS): 1.26 µM | GI50 (M14 melanoma): 0.0499 µM | TGI (M14 melanoma): 0.171 µM | GI50 (RXF 393 renal): 0.121 µM | TGI (RXF 393 renal): 0.263 µM | GI50 (OVCAR-3 ovarian): 0.0896 µM | TGI (OVCAR-3 ovarian): 0.216 µM | GI50 (SF-268 CNS): 0.102 µM | TGI (SF-268 CNS): 0.246 µM | GI50 (NCI-H226 lung): 0.136 µM | TGI (NCI-H226 lung): 0.288 µM | GI50 (CAKI-1 renal): 0.0947 µM | TGI (CAKI-1 renal): 0.222 µM | GI50 (ACHN renal): 0.139 µM | TGI (ACHN renal): 0.294 µM | GI50 (MOLT-4 leukemia): 0.0181 µM | TGI (MOLT-4 leukemia): 0.0324 µM | GI50 (SF-295 CNS): 0.119 µM | TGI (SF-295 CNS): 0.249 µM | GI50 (TK-10 renal): 0.064 µM | TGI (TK-10 renal): 0.229 µM | GI50 (LOX IMVI melanoma): 0.0472 µM | TGI (LOX IMVI melanoma): 0.157 µM | GI50 (HCC-2998 colon): 0.0525 µM | TGI (HCC-2998 colon): 0.188 µM | GI50 (NCI-H23 lung): 0.0934 µM | TGI (NCI-H23 lung): 0.334 µM | GI50 (A549 NSCLC): 0.0692 µM | TGI (A549 NSCLC): 0.229 µM | GI50 (NCI/ADR-RES ovarian): 0.0155 µM | TGI (NCI/ADR-RES ovarian): 0.0423 µM | GI50 (HCT-15 colon): 0.0982 µM | TGI (HCT-15 colon): 0.272 µM | GI50 (NCI-H522 lung): 0.0407 µM | TGI (NCI-H522 lung): 0.163 µM | GI50 (SR leukemia): 0.0135 µM | TGI (SR leukemia): 0.0424 µM | GI50 (SN12C renal): 0.109 µM | TGI (SN12C renal): 0.233 µM | GI50 (DU-145 prostate): 0.0294 µM | TGI (DU-145 prostate): 0.095 µM | GI50 (OVCAR-8 ovarian): 0.0192 µM | TGI (OVCAR-8 ovarian): 0.14 µM | GI50 (MDA-MB-468 breast): 0.0684 µM | TGI (MDA-MB-468 breast): 0.384 µM | GI50 (HS 578T breast): 0.086 µM | TGI (HS 578T breast): 0.219 µM | GI50 (HOP-92 NSCLC): 0.102 µM | TGI (HOP-92 NSCLC): 0.31 µM | GI50 (KM12 colon): 0.113 µM | TGI (KM12 colon): 0.467 µM | GI50 (T-47D breast): 0.0389 µM | TGI (T-47D breast): 0.168 µM | GI50 (MDA-MB-435 melanoma): 0.125 µM | TGI (MDA-MB-435 melanoma): 0.283 µM | GI50 (NCI-H322M lung): 0.0792 µM | TGI (NCI-H322M lung): 0.261 µM | GI50 (MDA-MB-231 breast): 0.129 µM | TGI (MDA-MB-231 breast): 0.343 µM | GI50 (MALME-3M melanoma): 0.0258 µM | TGI (MALME-3M melanoma): 0.124 µM | GI50 (OVCAR-5 ovarian): 0.037 µM | TGI (OVCAR-5 ovarian): 0.137 µM | GI50 (EKVX NSCLC): 0.2 µM | TGI (EKVX NSCLC): 0.911 µM | GI50 (HT29 colon): 0.0611 µM | TGI (HT29 colon): 0.197 µM | GI50 (SK-MEL-5 melanoma): 0.0298 µM | TGI (SK-MEL-5 melanoma): 0.0612 µM | GI50 (PC-3 prostate): 0.0567 µM | TGI (PC-3 prostate): 0.239 µM | GI50 (SF-539 CNS): 0.0824 µM | TGI (SF-539 CNS): 0.409 µM | GI50 (OVCAR-4 ovarian): 0.14 µM | TGI (OVCAR-4 ovarian): 0.327 µM | GI50 (HOP-62 NSCLC): 0.069 µM | TGI (HOP-62 NSCLC): 0.263 µM
